Source: ChEMBL document CHEMBL1201862, “PubChem BioAssay data set” (2004)
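These data come from cells grown in 96-well plates and exposed to compound for 48 hours at five concentrations. GI50 = concentration required for 50% inhibition of growth.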 Activity calls are given as the source filed them. Cut-off read from the data, not from the text of the source: active = GI50 up to about 1.1 µM and inactive = higher.

What was measured:
Assay in all cases: NCI-60 cell line screen, 48 h
786-0 = test system: 786-0
A498 = test system: A498
A549 = test system: A549
ACHN = test system: ACHN
BT-549 = test system: BT-549
CAKI-1 = test system: CAKI-1
CCRF-CEM = test system: CCRF-CEM
COLO 205 = test system: COLO 205
DU-145 = test system: DU-145
EKVX = test system: EKVX
HCT-116 = test system: HCT-116
HCT-15 = test system: HCT-15
HL-60 = test system: HL-60
HOP-62 = test system: HOP-62
HOP-92 = test system: HOP-92
HT-29 = test system: HT-29
Hs-578T = test system: Hs-578T
IGROV-1 = test system: IGROV-1
K562 = test system: K562
KM12 = test system: KM12
LOX IMVI = test system: LOX IMVI
M14 = test system: M14
MCF7 = test system: MCF7
MDA-MB-231 = test system: MDA-MB-231
MDA-MB-435 = test system: MDA-MB-435
MDA-N = test system: MDA-N
MOLT-4 = test system: MOLT-4
Malme-3M = test system: Malme-3M
NCI-H226 = test system: NCI-H226
NCI-H23 = test system: NCI-H23
NCI-H460 = test system: NCI-H460
NCI-H522 = test system: NCI-H522
NCI/ADR-RES = test system: NCI/ADR-RES
OVCAR-3 = test system: OVCAR-3
OVCAR-4 = test system: OVCAR-4
OVCAR-5 = test system: OVCAR-5
OVCAR-8 = test system: OVCAR-8
PC-3 = test system: PC-3
RPMI-8226 = test system: RPMI-8226
RXF 393 = test system: RXF 393
SF-268 = test system: SF-268
SF-295 = test system: SF-295
SF-539 = test system: SF-539
SK-MEL-28 = test system: SK-MEL-28
SK-MEL-2 = test system: SK-MEL-2
SK-MEL-5 = test system: SK-MEL-5
SK-OV-3 = test system: SK-OV-3
SN12C = test system: SN12C
SNB-19 = test system: SNB-19
SNB-75 = test system: SNB-75
SR = test system: SR
SW-620 = test system: SW-620
TK-10 = test system: TK-10
U-251 = test system: U-251
UACC-257 = test system: UACC-257
UACC-62 = test system: UACC-62
UO-31 = test system: UO-31

Question: What does the source list for NC(=O)CO/N=C1/C(=C2/C(=O)Nc3ccccc32)Nc2ccccc21?
Answer: GI50 (786-0): > 100 µM (inactive); GI50 (A498): > 100 µM (inactive); GI50 (A549): 1.96 µM (inactive); GI50 (ACHN): 3.48 µM (inactive); GI50 (BT-549): 12.4 µM (inactive); GI50 (CAKI-1): 0.247 µM (active); GI50 (CCRF-CEM): 11.5 µM (inactive); GI50 (COLO 205): 1.86 µM (inactive); GI50 (DU-145): 1.67 µM (inactive); GI50 (EKVX): > 100 µM (inactive); GI50 (HCT-116): 0.755 µM (active); GI50 (HCT-15): 2 µM; GI50 (HL-60): 1.96 µM (inactive); GI50 (HOP-62): 22.6 µM (inactive); GI50 (HOP-92): > 100 µM (inactive); GI50 (HT-29): 2.12 µM (inactive); GI50 (Hs-578T): > 100 µM (inactive); GI50 (IGROV-1): 0.395 µM (active); GI50 (K562): 40 µM (inactive); GI50 (KM12): 0.247 µM (active); GI50 (LOX IMVI): 1.04 µM (active); GI50 (M14): 10.4 µM (inactive); GI50 (MCF7): 1.38 µM (inactive); GI50 (MDA-MB-231): > 100 µM (inactive); GI50 (MDA-MB-435): 21.1 µM (inactive); GI50 (MDA-N): 53 µM (inactive); GI50 (MOLT-4): 3.44 µM (inactive); GI50 (Malme-3M): > 100 µM (inactive); GI50 (NCI-H226): 4.35 µM (inactive); GI50 (NCI-H23): 0.811 µM (active); GI50 (NCI-H460): 1.11 µM (active); GI50 (NCI-H522): > 100 µM (inactive); GI50 (NCI/ADR-RES): > 100 µM (inactive); GI50 (OVCAR-3): 4.49 µM (inactive); GI50 (OVCAR-4): > 100 µM (inactive); GI50 (OVCAR-5): > 100 µM (inactive); GI50 (OVCAR-8): 62.5 µM (inactive); GI50 (PC-3): > 100 µM (inactive); GI50 (RPMI-8226): 17.9 µM (inactive); GI50 (RXF 393): 0.491 µM (active); GI50 (SF-268): > 100 µM (inactive); GI50 (SF-295): > 100 µM (inactive); GI50 (SF-539): > 100 µM (inactive); GI50 (SK-MEL-28): > 100 µM (inactive); GI50 (SK-MEL-2): 2.4 µM (inactive); GI50 (SK-MEL-5): 1.49 µM (inactive); GI50 (SK-OV-3): 0.522 µM (active); GI50 (SN12C): > 100 µM (inactive); GI50 (SNB-19): > 100 µM (inactive); GI50 (SNB-75): > 100 µM (inactive); GI50 (SR): 0.778 µM (active); GI50 (SW-620): 4.95 µM (inactive); GI50 (TK-10): 3.85 µM (inactive); GI50 (U-251): > 100 µM (inactive); GI50 (UACC-257): > 100 µM (inactive); GI50 (UACC-62): 5.87 µM (inactive); GI50 (UO-31): 1.77 µM (inactive)
